pEC50, pKi: −log10 of the molar value. Like-named read-outs stand apart in the source and are kept apart here.
Experiments:
[1] = biological target: T1, delta opioid receptor (NG108-15 cell membranes) (Mus musculus, UniProt P32300); assay: [35S]GTPγS Binding Assay in NG108-15 Cell Membranes (Delta Opioid); assay type: biochemical
T1 construct: NG108-15 cell membranes were purchased from Applied Cell Sciences (Rockville, Md.); host or cells: NG108-15 cell membranes (purchased)
Description: Methods: NG108-15 cell membranes were purchased from Applied Cell Sciences (Rockville, Md.). 8 mg/mL of membrane protein was suspended in 10 mM TRIS-HCl pH 7.2, 2 mM EDTA, 10% sucrose. Membranes were maintained at 4-8° C. A 1 mL volume of membranes was added into 10 mL cold binding assay buffer. The assay buffer contained 50 mM Tris, pH 7.6, 5 mM MgCl2, 100 mM NaCl, 1 mM DTT and 1 mM EGTA. The membrane suspension was homogenized twice with a Polytron, and centrifuged at 3000 rpm for 10 min. The supernatant was then centrifuged at 18,000 rpm for 20 min. Ten mL assay buffer was added into the pellet containing tube. The pellet and buffer were mixed with a Polytron.
Incubation procedure: The pellet membranes (75 μg/mL) were preincubated with SPA (10 mg/mL) at 25° C. for 45 min in the assay buffer. […] GTPγS in the same Tris buffer containing 100 μM GDP in a total volume of 200 μL. Increasing concentrations of receptor agonists were used to stimulate [^35S]-GTP[…]S binding. The basal binding was tested in the absence of agonists and non-specific binding was tested in the presence of 10 μM unlabeled GTPγS. The data were analyzed on a Packard Top Count.
% of Basal=(stimulated−non specific)*100/(basal−non specific).
EC50 value values were calculated using GraphPad Prism.

mu opioid receptor = biological target: T2, mu opioid receptor (Rattus norvegicus, UniProt P33535); assay: Rat Brain Mu Opioid Receptor Binding Assay
T2 construct: from tissue; host or cells: forebrain of male Wistar rats (particulate membrane preparation)
Description: Procedure: Male, Wistar rats (150-250 g, VAF, Charles River, Kingston, N.Y.) were killed by CO2, and their brains were removed and placed immediately in ice cold Tris HCl buffer (50 mM, pH 7.4). The forebrains were separated from the remainder of the brain by a coronal transection, beginning dorsally at the colliculi and passing ventrally through the midbrain-pontine junction. After dissection, the forebrains were homogenized in Tris buffer in a Teflon®-glass homogenizer. The homogenate was diluted to a concentration of 1 g of forebrain tissue per 80 mL Tris and centrifuged at 39,000×g for 10 min. The pellet was resuspended in the same volume of Tris buffer containing 5 mM MgCl2 with several brief pulses from a Polytron homogenizer. This particulate preparation was used for the mu opioid binding assays.
(§1) Analysis: The data from the scintillation counter was used to calculate either the % inhibition compared to control binding (when only a single concentration of test compound was evaluated) or a Ki value (when a range of concentrations was tested). Percent inhibition was calculated as: [(total dpm-test compound dpm)/(total dpm-nonspecific dpm)]*100. Kd and Ki values were calculated using GraphPad PRISM data analysis program.

delta opioid receptor = biological target: T3, delta opioid receptor (Rattus norvegicus, UniProt P33533); assay: Rat Brain Delta Opioid Receptor Binding Assay
T3 construct: from tissue; host or cells: forebrain of male Wistar rats (particulate membrane preparation)
Description: Procedure: Male, Wistar rats (150-250 g, VAF, Charles River, Kingston, N.Y.) were killed by CO2, and their brains were removed and placed immediately in ice cold Tris HCl buffer (50 mM, pH 7.4). The forebrains were separated from the remainder of the brain by a coronal transection, beginning dorsally at the colliculi and passing ventrally through the midbrain-pontine junction. After dissection, the forebrains were homogenized in Tris buffer in a Teflon®-glass homogenizer. The homogenate was diluted to a concentration of 1 g of forebrain tissue per 80 mL Tris and centrifuged at 39,000×g for 10 min. The pellet was resuspended in the same volume of Tris buffer containing 5 mM MgCl2 with several brief pulses from a Polytron homogenizer. This particulate preparation was used for the delta opioid binding assays. Following incubation with the delta selective peptide ligand ˜4 nM [^3H]DPDPE or 0.15 nM [^3H]naltrindole at 25° C. for 2.5 h in a 96-well plate with total volume of […], the plate contents were filtered through Wallac filtermat B sheets on a Tomtec 96-well harvester. The filters were rinsed three times with 2 mL of 10 mM HEPES (pH 7.4), and dried in a 650 W microwave oven for 1.75 min twice. To each sample area 2×50 μL of Betaplate Scint scintillation fluid (LKB) was added and the radioactivity was quantified on a LKB (Wallac) 1205 BetaPlate liquid scintillation counter.
as §1

[2] = NG108-15 cell membranes, stimulation of [35S]GTPγS binding, read-out: delta GTPγS EC50
[3] = rat forebrain membranes, [3H]DAMGO, 25° C., 2.5 h, read-out: mu (Ki)
[4] = rat forebrain membranes, [3H]DPDPE or [3H]naltrindole, 25° C., 2.5 h, read-out: delta (Ki)

T3 sequence (P33533 whole entry): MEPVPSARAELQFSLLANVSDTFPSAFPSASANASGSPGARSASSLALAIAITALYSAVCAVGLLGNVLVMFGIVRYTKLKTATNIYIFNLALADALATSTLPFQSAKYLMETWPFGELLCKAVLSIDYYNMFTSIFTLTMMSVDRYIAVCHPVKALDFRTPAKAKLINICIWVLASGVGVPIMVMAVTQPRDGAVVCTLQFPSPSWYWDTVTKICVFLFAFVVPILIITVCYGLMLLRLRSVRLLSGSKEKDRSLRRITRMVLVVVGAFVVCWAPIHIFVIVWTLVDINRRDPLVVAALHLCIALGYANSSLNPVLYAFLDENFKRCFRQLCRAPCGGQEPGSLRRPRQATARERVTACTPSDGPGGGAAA
T2 sequence (P33535 whole entry): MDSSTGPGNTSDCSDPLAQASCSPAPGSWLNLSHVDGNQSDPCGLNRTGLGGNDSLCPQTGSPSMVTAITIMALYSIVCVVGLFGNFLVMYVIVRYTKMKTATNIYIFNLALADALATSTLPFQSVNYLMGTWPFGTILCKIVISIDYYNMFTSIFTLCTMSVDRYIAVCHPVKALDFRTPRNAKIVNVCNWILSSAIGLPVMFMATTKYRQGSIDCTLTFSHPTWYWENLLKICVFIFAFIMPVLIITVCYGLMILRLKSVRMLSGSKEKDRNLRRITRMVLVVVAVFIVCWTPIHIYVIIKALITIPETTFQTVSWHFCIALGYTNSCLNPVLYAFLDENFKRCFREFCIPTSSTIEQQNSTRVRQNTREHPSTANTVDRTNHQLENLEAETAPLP
T1 sequence (P32300 whole entry): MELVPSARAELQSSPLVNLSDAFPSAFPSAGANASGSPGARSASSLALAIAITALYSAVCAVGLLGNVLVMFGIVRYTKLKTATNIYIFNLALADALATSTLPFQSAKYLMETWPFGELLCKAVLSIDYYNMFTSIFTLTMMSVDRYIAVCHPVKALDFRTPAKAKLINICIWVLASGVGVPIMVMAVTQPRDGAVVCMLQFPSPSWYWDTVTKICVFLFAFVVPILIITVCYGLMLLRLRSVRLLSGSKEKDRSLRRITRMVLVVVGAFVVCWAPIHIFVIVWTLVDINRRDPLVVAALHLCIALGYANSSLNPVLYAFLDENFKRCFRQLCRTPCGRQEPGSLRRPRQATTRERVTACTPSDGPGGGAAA

| SMILES | pKi (mu opioid receptor; [3]) | pKi (delta opioid receptor) | pKi (delta opioid receptor; [4]) | pKi (mu opioid receptor) | also measured |
| --- | --- | --- | --- | --- | --- |
| CCN(CC)C(=O)c1cccc(-c2ccc3c(c2)Oc2c(O)cccc2C3C2CCNCC2)c1 (centres unmarked) [3j, N,N-Diethyl-3-(5-hydroxy-9-piperidin-4-yl-9H-xanthen-3-yl)-benzamide] | 6.27 | 7.42 | – | – | pEC50 [1, 2]: 6.47 |
| CCN(CC)C(=O)c1ccc2c(c1)Oc1c(OC)cccc1C2C1CCNCC1 (centres unmarked) [6c, 5-Methoxy-9-piperidin-4-yl-9H-xanthene-3-carboxylic acid diethylamide] | < 5.00 | – | 6.56 | – | – |
| C=CCN1CCC(C2c3ccccc3Oc3cc(-c4ccccc4NC(C)=O)ccc32)CC1 (centres unmarked) [6g, N-{2-[9-(1-Allyl-piperidin-4-yl)-9H-xanthen-3-yl]-phenyl}-acetamide] | 5.02 | – | 5.96 | – | – |
| CCN(CC)C(=O)c1ccc2c(c1)Oc1c(Cl)cccc1C2C1CCNCC1 (centres unmarked) [6k, 5-Chloro-9-piperidin-4-yl-9H-xanthene-3-carboxylic acid diethylamide] | 5.24 | – | 6.56 | – | – |
| O=C(c1ccc2c(c1)Oc1ccccc1C2C1CCN(CCc2ccccc2)CC1)N1CC[C@H](O)C1 (stereo partly drawn) [6n, (3-(S)-Hydroxy-pyrrolidin-1-yl)-[9-(1-phenethyl-piperidin-4-yl)-9H-xanthen-3-yl]-methanone] | 5.47 | – | 5.15 | – | – |
| COc1cccc2c1Oc1cc(-c3cccnc3)ccc1C2C1CCNCC1 (centres unmarked) [7b, 3-(5-Methoxy-9-piperidin-4-yl-9H-xanthen-3-yl)-pyridine] | < 5.00 | – | 6.50 | – | – |
| CCN(CC)C(=O)c1ccc2c(c1)Oc1c(O)cccc1C2C1CCNCC1 (centres unmarked) [7c, 5-Hydroxy-9-piperidin-4-yl-9H-xanthene-3-carboxylic acid diethylamide] | – | 8.70 | – | 5.37 | pEC50 [1]: 7.73; delta GTPγS Rel Eff. ([1]; NG108-15 cell membranes, relative efficacy): 0.51 |
| c1ccc(CN2CCC(C3c4ccccc4Oc4cc(-c5cccnc5)ccc43)CC2)cc1 (centres unmarked) [7f, 3-[9-(1-Benzyl-piperidin-4-yl)-9H-xanthen-3-yl]-pyridine] | – | 6.11 | – | 5.51 | – |
| CCN(CC)C(=O)c1ccc2c(c1)Oc1ccccc1C2C1CCNCC1 (centres unmarked) [8a, 9-Piperidin-4-yl-9H-xanthene-3-carboxylic acid diethylamide] | 5.06 | 7.82 | – | – | pEC50 [1, 2]: 6.58 |
| COc1cccc2c1Oc1cc(-c3ccncc3)ccc1C2C1CCNCC1 (centres unmarked) [8b, 4-(5-Methoxy-9-piperidin-4-yl-9H-xanthen-3-yl)-pyridine] | < 5.00 | – | 6.21 | – | – |
| c1ccc(CCN2CCC(C3c4ccccc4Oc4cc(-c5cccnc5)ccc43)CC2)cc1 (centres unmarked) [8f, 3-[9-(1-Phenethyl-piperidin-4-yl)-9H-xanthen-3-yl]-pyridine] | 6.04 | – | 5.52 | – | – |
| CCN(CC)C(=O)c1ccc2c(c1)Oc1ccccc1C2C1CCN(Cc2ccoc2)CC1 (centres unmarked) [9a, 9-(1-Furan-3-ylmethyl-piperidin-4-yl)-9H-xanthene-3-carboxylic acid diethylamide] | – | 6.85 | – | 4.29 | – |
| COc1cccc2c1Oc1cc(-c3ccccc3NC(C)=O)ccc1C2C1CCNCC1 (centres unmarked) [9b, N-[2-(5-Methoxy-9-piperidin-4-yl-9H-xanthen-3-yl)-phenyl]-acetamide] | 5.35 | – | 6.12 | – | – |
| CCN(CC)C(=O)c1ccc2c(c1)Oc1ccccc1C2C1CCN(Cc2ccccc2)CC1 (centres unmarked) [10a, 9-(1-Benzyl-piperidin-4-yl)-9H-xanthene-3-carboxylic acid diethylamide] | – | 7.12 | – | 5.27 | – |
| CCN(CC)C(=O)c1ccc2c(c1)Oc1ccccc1C2C1CCN(Cc2ccccn2)CC1 (centres unmarked) [11a, 9-(1-Pyridin-2-ylmethyl-piperidin-4-yl)-9H-xanthene-3-carboxylic acid diethylamide] | – | 5.57 | – | 4.82 | – |
| CCN(CC)C(=O)c1ccc2c(c1)Oc1ccccc1C2C1CCN(CCc2ccccc2)CC1 (centres unmarked) [12a, 9-(1-Phenethyl-piperidin-4-yl)-9H-xanthene-3-carboxylic acid diethylamide] | – | 5.42 | – | 6.01 | – |
| CCN(CC)C(=O)c1ccc2c(c1)Oc1ccccc1C2C1CCN(Cc2ncc[nH]2)CC1 (centres unmarked) [13a, 9-[1-(1H-Imidazol-2-ylmethyl)-piperidin-4-yl]-9H-xanthene-3-carboxylic acid diethylamide] | – | 6.97 | – | 5.77 | – |
| CCN(CC)C(=O)c1ccc2c(c1)Oc1ccccc1C2C1CCN(CC2CC2)CC1 (centres unmarked) [14a, 9-(1-Cyclopropylmethyl-piperidin-4-yl)-9H-xanthene-3-carboxylic acid diethylamide] | 5.16 | – | 5.96 | – | – |
| CCN(CC)C(=O)c1ccc2c(c1)Oc1ccccc1C2C1CCN(Cc2cccs2)CC1 (centres unmarked) [15a, 9-(1-Thiophen-2-ylmethyl-piperidin-4-yl)-9H-xanthene-3-carboxylic acid diethylamide] | – | 6.35 | – | 5.38 | – |
| CCN(CC)C(=O)c1ccc2c(c1)Oc1ccccc1C2C1CCN(C)CC1 (centres unmarked) [16a, 9-(1-Methyl-piperidin-4-yl)-9H-xanthene-3-carboxylic acid diethylamide] | – | 5.94 | – | 4.45 | – |

Reference: US20060135522A1, “Tricyclic delta-opioid modulators” (priority 2004, published 2006)
